Where two headings read alike, the source gives them in different places.

The target of series [1] is T1, Cathepsin B, purified from human liver (Homo sapiens, UniProt P07858).
T1 construct: Cathepsin B, purified from human liver; purchased Enzyme Systems Products (Dublin, Calif.); host or cells: human liver (tissue-purified)
The experiment in a line: In vitro evaluation of inhibitors with purified cathepsin B. It counts as biochemical. As for the experimental part:
Enzyme: Cathepsin B, purified from human liver, is from Enzyme Systems Products (Dublin, Calif.). The activity is 50 mU per ml at 30° C., in 52 mM sodium phosphate, pH 6.2, 31 mM DTT, 2.1 mM EDTA, with 0.2 mM Z—Arg—Arg-7-amino-4-trifluoromethyl-coumarin as a substrate. Specific activity is 8330 mU per mg protein. (1 mU=1 nmol per min.)
Substrate Boc—Leu—Arg—Arg-7-amino-4-trifluoromethyl-coumarin-2HBr is from Enzyme Systems Products (Dublin, Calif.) and is known to be a specific substrate for cathepsin B. A 20 mM solution is made in DMF and stored at […].
Candidate inhibitors are dissolved in DMF and diluted to 20 mM and stored at […]. Dilutions are made in assay buffer.
The percent inhibition and the inhibitor concentration at which the enzyme is 50% inhibited (IC50) are determined as follows. Five μl of assay buffer (50 mM potassium phosphate pH 6.2, 2 mM EDTA, 5 mM DTT) on ice for 30 min. The inhibition is initiated by the addition of […] inhibitor each to the 480 μl aliquots. The 485 μl aliquot with enzyme is used as a control and thus receives no inhibitor. The enzyme/inhibitor mixtures are incubated 10 min. on ice and assayed for cathepsin B activity as follows:
Cathepsin B assay: To 490 μl of pre-incubated inhibitor/enzyme mixtures in assay buffer in 0.5 ml cuvette at 37° is added 10 μl of the substrate. Final inhibitor concentrations become 2000 nM, 200 nM, and 20 nM for the 200 μM, 20 μM and 2 μM stock concentrations, respectively. Activity is followed by release of free AFC over 5 min. The change in fluorescence is (fluorescence units at t=6)−(fluorescence units at t=1) with a Perkin-Elmer LS-5B spectrofluorometer (ex=400 nm, em=505 nm). The percent inhibition is determined by comparing the change in fluorescence units of the three sample concentrations of inhibited enzyme to the change in fluorescence units of the control enzyme. The percent inhibition is calculated as:
100−(fl. units of sample/fl. units of control×100).
The IC50 is ascertained by plotting percent inhibition vs. inhibitor concentration on the log scale. The IC50 is the concentration of the inhibitor (nM) at which the enzyme is inhibited by 50%.

Series [2] has as its system T. cruzi. Briefly: Inhibition of T. cruzi in infected cells, cell line J774. It counts as cell-based. Conditions: days before cell monolayer is destroyed by infection; 20 μM, daily change of medium plus inhibitor. As for the experimental part: (§1) Survival time is measured in days before the cell monolayer is destroyed by the infection. Irradiated BHK and J774 cells (six well plates) were infected with T. cruzi and simultaneously treated with 20 μM (3 ml total volume) with daily change of culture medium+plus inhibitor).
(§2) Cultivation and preparation of T. cruzi. Cloned and uncloned populations were derived from the strains Brasil, and CA-I and are cryopreserved in liquid nitrogen. Axenically cultured epimastigotes are maintained in exponential growth phase by weekly passage in Brain Heart Infusion-Tryptose medium (BHT media as given in Cazzulo, Cazzulo, Martinez, and Cazzulo, Some Kinetic Properties of a Cysteine Proteinase (Cruzipain) from Trypanosoma Cruzi. 33 Mol. Biochem. Parasitol. 33-42 (1990)), supplemented with […] 10% (v/v) heat inactivated fetal calf serum (FCS). Different host cell lines (J774 mouse macrophage, BHK, etc.) are cultured with RPMI-1640 supplemented with 5% FCS at 37° in a humidified atmosphere containing 5% CO2. Trypomastigotes liberated from the host cells are used to infect new cultures for serial maintenance of the parasite in cell culture. The protocols used for the in vitro assays of cysteine protease inhibitors are essentially as described by Harth, Andrews, Mills, Engel, Smith, and McKerrow, Peptide-Fluoromethyl Ketones Arrest Intracellular Replication and Intercellular Transmission of Trypanosoma Cruzi. 58 Mol. Biochem. Parasitol. 17-24 (1993), with the exception that in some experiments, the host cells are irradiated (2400 RADs) before infection to prevent them from dividing.

Series [3] has as its system T. cruzi. The experiment in a line: Inhibition of T. cruzi in infected cells, cell line BHK. It counts as cell-based. Conditions: days before cell monolayer is destroyed by infection; 20 μM, daily change of medium plus inhibitor. As for the experimental part:
as §1, §2

The test system of a further series is Pneumocystis carinii. Briefly: In vitro inhibition of Pneumocystis carinii in culture with human embryonic lung fibroblast monolayers. In kind it is cell-based. On the procedure: The percent of inhibition is calculated as 100−(the number of P. carinii trophozoites in a treated cell culture/number of trophosites of the control)×100.
Methods. The drugs dissolved in dimethyl sulfoxide were diluted to concentrations of 10 μg/ml for compound 3 and […] for compound 9 in minimum essential medium used for the culture of human embryonic lung fibroblasts. […] Cell cultures in 24-well plates were innoculated with P. carinii trophozoites (final concentration, about 7×10^5 per ml) obtained from infected rat lungs. Each culture plate contained untreated and treated wells. Plates were incubated at 35° C. in a gas mixture of 5% O2, 10% CO2, 85% N2 for up to 7 days. Plates were sampled on days 1, 3, 5 and 7 by removal of 10 μl amounts after agitation of the cultures. The samples were placed on slides in 1-cm^2 areas, fixed in methanol and stained with Giemsa stain; and then they were examined microscopically as unknowns by two individuals. For each parameter there were four wells, making eight values for each parameter. Standard errors range from 3-13%. Cultures were spiked with fresh drugs on days 2, 4 and 6.

Where [4] appears, read: inhibitors with other heterocycles, read-out: IC5 Cathepsin B Inhibition.
[5] abbreviates: purified cathepsin B, read-out: IC50 Cat B.

For the molecule `O=C(COc1nc2ccccc2s1)[C@H](CCc1ccccc1)NC(=O)[C@H](Cc1ccccc1)NC(=O)N1CCOCC1`, in series [1] (setting [4]), the IC50 came out at 21 µM.
On the same count and under the same terms, the figure for `C[n+]1ccc2ccccc2c1OCC(=O)[C@H](CCc1ccccc1)NC(=O)[C@H](Cc1ccccc1)NC(=O)N1CCOCC1` is 5.6 µM; for `O=C(COc1cc2ccccc2o1)[C@H](CCc1ccccc1)NC(=O)[C@H](Cc1ccccc1)NC(=O)N1CCOCC1` it is 0.252 µM.
Turning to `O=C1OCC(OCC(=O)[C@H](CCc2ccccc2)NC(=O)[C@H](Cc2ccccc2)NC(=O)N2CCOCC2)=C1c1ccccc1` [Compound 9, N-Morpholinecarbonyl-L-phenylalanyl-L-homophenylalanyl-α-(4-oxy-3-phenyl-dihydrofuran-2-one) methyl ketone], the melting point (in general, the temperature, or range, at which the solid turns liquid) fell in the range of 114 to 116 °C. Moreover, in series [1] (setting [5]), the IC50 came out at 0.036 µM. Moreover, the “Survival Time, Cell line J774” value in the series on T. cruzi [2] came out at 4 days. In the series with T. cruzi [3], the “Survival Time, Cell line BHK” value was 6 days.
As to `Cc1cc(OCC(=O)[C@H](CCCCN)NC(=O)[C@H](Cc2ccccc2)NC(=O)N2CCOCC2)cc(=O)o1` [Compound 7], the melting point was in the range of 151 to 155 °C. In addition, in series [1] (setting [5]), the IC50 was found to be 0.025 µM.
Turning to `O=C(COc1ccc2ccc(=O)oc2c1)[C@H](CCc1ccccc1)NC(=O)[C@H](Cc1ccccc1)NC(=O)N1CCOCC1`, the IC50 in series [1] (setting [4]) was determined as 4.5 µM.
On the same count and under the same terms, the figure for `Cc1cc(OCC(=O)[C@H](CCc2ccccc2)NC(=O)[C@H](Cc2ccccc2)NC(=O)N2CCOCC2)nc2ccccc12` is 0.282 µM; for `O=C(COc1nccc2ccccc12)[C@H](CCc1ccccc1)NC(=O)[C@H](Cc1ccccc1)NC(=O)N1CCOCC1` it is 0.457 µM.
Turning to `COc1ccc(C[C@H](NC(=O)N2CCOCC2)C(=O)N[C@@H](CCCCN)C(=O)COC2=C(c3ccccc3)C(=O)OC2)cc1` [Compound 10, N-Morpholinecarbonyl-L-tryosyl (O-methyl)-L-lysyl-(4-oxy-3-phenyl-dihydrofuran-2-one) methyl ketone], the melting point lay in the range of 140 to 142 °C. Also, in series [1] (setting [5]), the IC50 stood at 0.008 µM.
For `CCC1OC(=O)C(OCC(=O)C(CCc2ccccc2)NC(=O)C(Cc2ccccc2)NC(=O)N2CCOCC2)=C1C` (centres unmarked), in series [1] (setting [4]), the IC50 was 0.229 µM.
For `Cc1cc(OCC(=O)[C@H](CCc2ccccc2)NC(=O)[C@H](Cc2ccccc2)NC(=O)N2CCOCC2)cc(=O)o1` [Compound 3, N-Morpholinecarbonyl-L-phenylalanyl-L-homophenylalanyl-α-(4-oxy-6-methyl-2-pyrone) methyl ketone], the IC50 in series [1] (setting [5]) turned out to be 0.112 µM. Further, the inhibition (as a rule, the relative decrease from the control value, in per cent) at 10 µg/mL in the series with Pneumocystis carinii (24 h, Day 1, 10 μg/ml for compound 3, 10 μM/ml for compound 9, read-out: Percent Inhibition, Day 1) stood at 23%; with Pneumocystis carinii (48 h, Day 2, 10 μg/ml for compound 3, 10 μM/ml for compound 9, read-out: Percent Inhibition, Day 2), 44%; in the series on Pneumocystis carinii (72 h, Day 3, 10 μg/ml for compound 3, 10 μM/ml for compound 9, read-out: Percent Inhibition, Day 3), 39%; in the series with Pneumocystis carinii (96 h, Day 4, 10 μg/ml for compound 3, 10 μM/ml for compound 9, read-out: Percent Inhibition, Day 4), 13%.
Molecule `COc1ccc(C[C@H](NC(=O)N2CCOCC2)C(=O)N[C@@H](CCCCN)C(=O)COc2cc(C)oc(=O)c2)cc1` [Compound 8] came in with a melting point of 140 to 142 °C. In addition, in series [1] (setting [5]), the IC50 turned out to be 0.083 µM.
`O=C(COc1cccs1)[C@H](CCc1ccccc1)NC(=O)[C@H](Cc1ccccc1)NC(=O)N1CCOCC1`: the IC50 in series [1] (setting [4]) came to 79 µM.
Still for that read-out and setting: the figure for `CCOC(=O)c1c(C)noc1OCC(=O)[C@H](CCc1ccccc1)NC(=O)[C@H](Cc1ccccc1)NC(=O)N1CCOCC1` is 2.19 µM.
For `O=C(COc1nc2ccccc2[nH]1)[C@H](CCc1ccccc1)NC(=O)[C@H](Cc1ccccc1)NC(=O)N1CCOCC1`, the IC50 in series [1] (setting [4]) was 0.569 µM.
Same read-out and setting: the same measure for `Cc1cc(=O)oc2cc(OCC(=O)[C@H](CCc3ccccc3)NC(=O)[C@H](Cc3ccccc3)NC(=O)N3CCOCC3)ccc12`: 4.5 µM.
For the molecule `NCCCC[C@H](NC(=O)[C@H](Cc1ccccc1)NC(=O)N1CCOCC1)C(=O)COC1=C(c2ccccc2)C(=O)OC1` [Compound 11, N-Morpholinecarbonyl-L-phenylalanyl-L-lysyl-α-(4-oxy-3-phenyl-dihydrofuran-2-one) methyl ketone], the melting point lay within 140 to 145 °C. Besides, the IC50 in series [1] (setting [5]) turned out to be 0.005 µM.
On to `O=C1OC(C(O)CO)C(OCC(=O)C(CCc2ccccc2)NC(=O)C(Cc2ccccc2)NC(=O)N2CCOCC2)=C1O` [Compound 2, N-Morpholinecarbonyl-L-phenylalanyl-L-homophenylalanyl-α-(4-ascorbityl) methyl ketone], for which the IC50 in series [1] (setting [5]) was 0.141 µM.
`CC1CC(OCC(=O)C(CCc2ccccc2)NC(=O)C(Cc2ccccc2)NC(=O)N2CCOCC2)=CC(=O)O1` [Compound 4, N-Morpholinecarbonyl-L-phenylalanyl-L-homophenylalanyl-α-(4-oxy-5,6-dihydro-6-methyl-2H-pyran-2-one) methyl ketone] gave a melting point of 74 to 78 °C. Moreover, the IC50 in series [1] (setting [5]) is 0.567 µM.
`O=C(COc1cc(=O)oc2ccccc12)[C@H](CCc1ccccc1)NC(=O)[C@H](Cc1ccccc1)NC(=O)N1CCOCC1` [Compound 6, N-Morpholinecarbonyl-L-phenylalanyl-L-homophenylalanyl-α-(4-oxy-coumarin) methyl ketone] came in with a melting point of 115 to 119 °C. Further, the IC50 in series [1] (setting [5]) turned out to be 0.045 µM. Moreover, the “Survival Time, Cell line J774” value with T. cruzi [2] is at least 16 days. In the series on T. cruzi [3], the “Survival Time, Cell line BHK” value was at least 16 days.
In turn, `Cc1cc(OCC(=O)[C@H](CCc2ccccc2)NC(=O)[C@H](CC(C)C)NC(=O)N2CCOCC2)cc(=O)o1` [Compound 5] had a melting point of 70 to 75 °C. Also, the IC50 in series [1] (setting [5]) amounted to 0.4 µM.
For `O=C1CC(=O)C(c2ccccc2)=C1OCC(=O)[C@H](CCc1ccccc1)NC(=O)[C@H](Cc1ccccc1)NC(=O)N1CCOCC1` [Compound 1, N-Morpholinecarbonyl-L-phenylalanyl-L-homophenylalanine-α-(4-oxy-5-phenyl-4-cyclopentene-1,3-dione) methyl ketone], the IC50 in series [1] (setting [5]) turned out to be 0.094 µM.
`O=C(COc1ncnc2ccccc12)[C@H](CCc1ccccc1)NC(=O)[C@H](Cc1ccccc1)NC(=O)N1CCOCC1`: the IC50 in series [1] (setting [4]) is 1.8 µM.
On the same count and under the same terms, the figure for `Cc1ccc2cccc(OCC(=O)[C@H](CCc3ccccc3)NC(=O)[C@H](Cc3ccccc3)NC(=O)N3CCOCC3)c2n1` is 0.219 µM; for `Cc1occc(=O)c1OCC(=O)[C@H](CCc1ccccc1)NC(=O)[C@H](Cc1ccccc1)NC(=O)N1CCOCC1` it is 0.385 µM.

The record behind these values is patent publication US20020128434A1, “Alpha-(1,3-dicarbonylenol ether) methyl ketones as cysteine protease inhibitors” (priority 1993, published 2002).
